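These data come from cells grown in 96-well plates and exposed to compound for 48 hours at five concentrations. Abbreviation: GI50, concentration required for 50% inhibition of growth.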 Active and inactive are the calls of the source. Cut-off read from the data, not from the text of the source: active = GI50 up to about 1.1 µM and inactive = higher.
How the values were obtained:
Assay in all cases: DTP human tumour cell line panel, 48 h
[1] = tested on: HCT-15
[2] = tested on: NCI-H23
[3] = tested on: SK-MEL-5
[4] = tested on: PC-3
[5] = tested on: SK-MEL-2
[6] = tested on: HL-60
[7] = tested on: OVCAR-3
[8] = tested on: HCT-116
[9] = tested on: IGROV-1
[10] = tested on: 786-0
[11] = tested on: SNB-75
[12] = tested on: MOLT-4
[13] = tested on: K562
[14] = tested on: A549
[15] = tested on: A498
[16] = tested on: LOX IMVI
[17] = tested on: BT-549
[18] = tested on: M14
[19] = tested on: UO-31
[20] = tested on: ACHN
[21] = tested on: DU-145
[22] = tested on: U-251
[23] = tested on: SF-268
[24] = tested on: OVCAR-4
[25] = tested on: SK-MEL-28
[26] = tested on: NCI-H522
[27] = tested on: MDA-MB-231
[28] = tested on: OVCAR-8
[29] = tested on: SN12C
[30] = tested on: UACC-62
[31] = tested on: Malme-3M
[32] = tested on: SNB-19
[33] = tested on: CCRF-CEM
[34] = tested on: OVCAR-5
[35] = tested on: T47D
[36] = tested on: SR
[37] = tested on: NCI-H460
[38] = tested on: SW-620
[39] = tested on: RPMI-8226
[40] = tested on: TK-10
[41] = tested on: NCI-H226
[42] = tested on: MDA-MB-435
[43] = tested on: HCC 2998
[44] = tested on: UACC-257
[45] = tested on: HT-29
[46] = tested on: HOP-62
[47] = tested on: MDA-N
[48] = tested on: COLO 205
[49] = tested on: SK-OV-3
[50] = tested on: MCF7
[51] = tested on: SF-295
[52] = tested on: Hs-578T
[53] = tested on: EKVX
[54] = tested on: CAKI-1
[55] = tested on: SF-539
[56] = tested on: HOP-92
[57] = tested on: RXF 393
[58] = tested on: KM12
[59] = tested on: NCI/ADR-RES

Measured: GI50

Cc1c(Cl)cccc1/N=N/C(=O)NNc1cccc(Cl)c1C
inactive: [2] 16.7 µM | [3] 15.3 µM | [4] 13.3 µM | [5] 13.6 µM | [6] 17.8 µM | [7] 17.6 µM | [8] 15.3 µM | [9] 6.37 µM | [10] 23.1 µM | [11] 18 µM | [12] 13.3 µM | [13] 16.8 µM | [14] 16.9 µM | [15] 14.4 µM | [16] 21.3 µM | [17] 14.1 µM | [18] 19.2 µM | [19] 12.5 µM | [20] 20.1 µM | [21] 14.4 µM | [22] 16.2 µM | [23] 16.9 µM | [24] 12 µM | [25] 16.6 µM | [26] 23.1 µM | [27] 17.8 µM | [28] 13.5 µM | [29] 17.3 µM | [30] 11.9 µM | [31] 16.1 µM | [32] 17.9 µM | [33] 16.9 µM | [34] 14.1 µM | [35] 10.7 µM | [36] 21.3 µM | [37] 16.6 µM | [38] 17.1 µM | [39] 25.5 µM | [40] 15.8 µM | [41] 15.8 µM | [42] 18.2 µM | [43] 17.3 µM | [44] 23.1 µM | [45] 20.4 µM | [46] 12.8 µM | [47] 17.2 µM
14.3 µM: [1]

CC(CCOc1c2ccoc2cc2oc(=O)ccc12)C1=CC(=O)C(C)(C)O1 (configuration not stated)
inactive: [48] > 100 µM | [49] > 100 µM | [2] > 100 µM | [3] > 100 µM | [4] > 100 µM | [5] > 100 µM | [6] > 100 µM | [7] > 100 µM | [8] > 100 µM | [9] > 100 µM | [10] > 100 µM | [50] > 100 µM | [12] > 100 µM | [13] > 100 µM | [14] > 100 µM | [51] > 100 µM | [16] > 100 µM | [17] 71 µM | [18] > 100 µM | [19] > 100 µM | [20] > 100 µM | [21] > 100 µM | [22] > 100 µM | [23] > 100 µM | [52] > 100 µM | [24] 42 µM | [25] > 100 µM | [26] 13.9 µM | [27] > 100 µM | [28] > 100 µM | [53] > 100 µM | [54] > 100 µM | [29] > 100 µM | [30] > 100 µM | [31] > 100 µM | [32] > 100 µM | [33] > 100 µM | [34] > 100 µM | [55] > 100 µM | [56] > 100 µM | [36] > 100 µM | [57] > 100 µM | [37] > 100 µM | [38] > 100 µM | [39] > 100 µM | [40] > 100 µM | [58] > 100 µM | [41] > 100 µM | [42] > 100 µM | [43] > 100 µM | [44] > 100 µM | [45] > 100 µM | [59] > 100 µM | [46] > 100 µM | [47] > 100 µM
> 100 µM: [1]

O=C(c1cscc1CCc1ccccc1)c1cscc1CCc1ccccc1
inactive: [48] > 100 µM | [49] > 100 µM | [2] > 100 µM | [3] > 100 µM | [4] > 100 µM | [5] > 100 µM | [8] > 100 µM | [9] 31.6 µM | [10] > 100 µM | [50] > 100 µM | [11] > 100 µM | [12] > 100 µM | [13] > 100 µM | [14] > 100 µM | [51] > 100 µM | [15] > 100 µM | [16] > 100 µM | [17] > 100 µM | [18] > 100 µM | [19] > 100 µM | [20] > 100 µM | [21] > 100 µM | [22] > 100 µM | [23] > 100 µM | [24] > 100 µM | [25] > 100 µM | [26] > 100 µM | [27] > 100 µM | [28] > 100 µM | [53] > 100 µM | [54] > 100 µM | [29] > 100 µM | [30] > 100 µM | [31] > 100 µM | [32] > 100 µM | [33] > 100 µM | [34] > 100 µM | [55] > 100 µM | [35] 11.6 µM | [36] 80 µM | [57] > 100 µM | [37] > 100 µM | [38] > 100 µM | [39] > 100 µM | [40] > 100 µM | [58] > 100 µM | [41] > 100 µM | [42] > 100 µM | [43] > 100 µM | [44] > 100 µM | [59] > 100 µM | [46] > 100 µM | [47] > 100 µM
> 100 µM: [1]

— ChEMBL document CHEMBL1201862, “PubChem BioAssay data set” (2004)
